{"source": "ChEMBL document CHEMBL5226350", "about": "“NSAIDs: Old Acquaintance in the Pipeline for Cancer Treatment and Prevention─Structural Modulation, Mechanisms of Action, and Bright Future” (J Med Chem, 2021)", "key": {"HT-29 [1]": {"tested_on": "HT-29", "assay": "Antitumor activity against human HT-29 cells xenografted in sc dosed mouse assessed as reduction in tumor volume measured after 10 days relative to control", "type": "functional", "parameters": "scale not given: the % may be the effect or the level left", "settings": "time 10 day"}, "PANC-1": {"tested_on": "PANC-1", "assay": "Antitumor activity against human PANC-1 cells xenografted in po dosed BALB/c mouse assessed as tumor growth inhibition measured after 30 days relative to control", "type": "functional", "settings": "time 30 day"}, "Mus musculus": {"tested_on": "Mus musculus", "assay": "Inhibition of pancreatitis-accelerated acinar-to-ductal metaplasia in C57Bl/6J mouse harboring Kras G12D mutant at 100 mg/kg ,po administered via gavage measured after 3 weeks in presence of cerulein relative to control", "type": "toxicity, organism-based", "settings": "504 h"}, "HT-29 [2]": {"tested_on": "HT-29", "assay": "Antitumor activity against human HT-29 cells expressing Trx-1 xenografted in sc dosed mouse in presence of DFMO by immunohistochemical staining based analysis relative to control", "type": "functional"}, "HT-29 [3]": {"tested_on": "HT-29", "assay": "Antitumor activity against human HT-29 cells xenografted in sc dosed Apc/Min mouse assessed as reduction in tumor growth in presence of DFMO relative to control", "type": "functional"}, "HT-29 [4]": {"tested_on": "HT-29", "assay": "Antitumor activity against human HT-29 cells expressing Trx-1 xenografted in sc dosed mouse assessed as reduction in tumor volume in presence of DFMO by immunohistochemical staining based analysis relative to control", "type": "functional", "parameters": "scale not given: the % may be the effect or the level left"}, "A549": {"tested_on": "A549", "assay": "Antitumor activity against human A549 cells xenografted in ip dosed mouse assessed as tumor growth inhibition at 200 mg/kg measured after 6 weeks relative to control", "type": "functional", "parameters": "scale not given: the % may be the effect or the level left"}, "A-431": {"tested_on": "A-431", "assay": "Antitumor activity against human A-431 cells xenografted in sc dosed mouse assessed as tumor growth inhibition measured after 15 days in presence of diclofenac relative to control", "type": "functional", "settings": "time 15 day"}, "U-118-MG": {"tested_on": "U-118-MG", "assay": "Antitumor activity against human U-118-MG cells xenografted in sc dosed BALB/c mouse assessed as tumor growth inhibition at 20 mg/kg measured after 29 days relative to control", "type": "functional", "settings": "696 h, time 29 day, read-out: TGI"}, "HT-29 [5]": {"tested_on": "HT-29", "assay": "Antitumor activity against human HT-29 cells xenografted in ip dosed mouse assessed as reduction in tumor volume measured after 21 days relative to control", "type": "functional", "parameters": "scale not given: the % may be the effect or the level left", "settings": "time 21 day"}}}
{"smiles": "O=C(CCCO[N+](=O)[O-])Oc1ccccc1C(=O)Oc1ccc(-c2cc(=S)ss2)cc1", "values": [{"measurement": "Activity", "setting": "HT-29 [1]", "result": 85, "unit": "%"}]}
{"smiles": "CCOP(=O)(OCC)OCC(COC(=O)c1ccccc1OC(C)=O)OP(=O)(OCC)OCC", "note": "(stereo not given)", "values": [{"measurement": "TGI", "setting": "PANC-1", "result": 78, "unit": "%"}, {"measurement": "inhibition at 100 mg/kg", "setting": "Mus musculus", "result": 83, "unit": "%"}]}
{"smiles": "CCOP(=O)(OCC)OCCCCOC(=O)CC1=C(C)/C(=C/c2ccc([S+](C)[O-])cc2)c2ccc(F)cc21", "note": "(stereo not given)", "values": [{"measurement": "Activity", "setting": "HT-29 [2]", "result": 50, "unit": "%"}, {"measurement": "TGI", "setting": "HT-29 [3]", "result": 90, "unit": "%"}, {"measurement": "Activity", "setting": "HT-29 [4]", "result": 83, "unit": "%"}]}
{"smiles": "CCOP(=O)(OCC)OCCCCNC(=O)C(C)c1ccc(CC(C)C)cc1", "note": "(stereo not given)", "values": [{"measurement": "Activity", "setting": "A549", "result": ">95", "unit": "%"}]}
{"smiles": "NCCCC(N)(C(=O)O)C(F)F", "note": "(stereo not given) [EFLORNITHINE]", "values": [{"measurement": "TGI", "setting": "A-431", "result": 90, "unit": "%"}]}
{"smiles": "CCOP(=O)(OCC)OCC(CNC(=O)C(C)c1ccc(CC(C)C)cc1)OP(=O)(OCC)OCC", "note": "(stereo not given)", "values": [{"measurement": "inhibition in vivo at 20 mg/kg", "setting": "U-118-MG", "result": 77, "unit": "%"}]}
{"smiles": "CCOP(=O)(OCC)OCc1cccc(OC(=O)c2ccccc2OC(C)=O)c1", "values": [{"measurement": "Activity", "setting": "HT-29 [5]", "result": ">60", "unit": "%"}]}
